Source: patent US8815857B2 (Boehringer Ingelheim International GmbH, priority 2011, dated 2014)
Values after ≈ are worked out from the molar mass of the structure shown.

How the values were obtained:
[1] = biological target: T1, Recombinant human soluble guanylate cyclase (sGC), alpha 1 / beta 1 subunits, heme-free (Homo sapiens, UniProt Q02108+Q02153); assay: Molecular assay: cGMP formation by heme-free recombinant sGC (CisBio cGMP detection kit); assay type: biochemical; settings: 300 pM heme-free sGC, 37° C., 60 min, cGMP readout; read-out: EC50 nM, Activity of Compounds in Molecular Assay
T1 construct: histidine tag (C); made in house; host or cells: Sf9 insect cells (baculovirus coinfection)
T1 sequence (Q02108 1-690 partner): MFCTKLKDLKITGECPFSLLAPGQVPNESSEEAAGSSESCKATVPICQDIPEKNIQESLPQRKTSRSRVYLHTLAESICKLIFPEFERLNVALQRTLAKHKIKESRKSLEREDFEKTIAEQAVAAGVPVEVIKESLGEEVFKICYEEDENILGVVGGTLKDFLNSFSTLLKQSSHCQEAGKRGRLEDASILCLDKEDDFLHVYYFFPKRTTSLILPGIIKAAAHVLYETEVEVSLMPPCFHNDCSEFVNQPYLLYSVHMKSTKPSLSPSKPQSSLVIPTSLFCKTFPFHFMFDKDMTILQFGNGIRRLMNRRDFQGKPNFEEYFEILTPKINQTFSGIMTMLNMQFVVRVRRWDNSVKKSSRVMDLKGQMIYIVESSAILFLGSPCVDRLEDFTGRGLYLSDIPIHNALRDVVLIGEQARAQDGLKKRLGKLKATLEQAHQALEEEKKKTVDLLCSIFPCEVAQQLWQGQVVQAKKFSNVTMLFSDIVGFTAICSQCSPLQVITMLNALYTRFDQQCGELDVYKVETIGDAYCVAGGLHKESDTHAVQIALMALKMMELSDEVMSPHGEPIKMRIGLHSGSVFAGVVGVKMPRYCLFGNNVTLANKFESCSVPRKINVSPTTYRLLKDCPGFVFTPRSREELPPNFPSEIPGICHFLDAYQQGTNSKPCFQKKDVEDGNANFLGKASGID
T1 sequence (Q02153 1-619): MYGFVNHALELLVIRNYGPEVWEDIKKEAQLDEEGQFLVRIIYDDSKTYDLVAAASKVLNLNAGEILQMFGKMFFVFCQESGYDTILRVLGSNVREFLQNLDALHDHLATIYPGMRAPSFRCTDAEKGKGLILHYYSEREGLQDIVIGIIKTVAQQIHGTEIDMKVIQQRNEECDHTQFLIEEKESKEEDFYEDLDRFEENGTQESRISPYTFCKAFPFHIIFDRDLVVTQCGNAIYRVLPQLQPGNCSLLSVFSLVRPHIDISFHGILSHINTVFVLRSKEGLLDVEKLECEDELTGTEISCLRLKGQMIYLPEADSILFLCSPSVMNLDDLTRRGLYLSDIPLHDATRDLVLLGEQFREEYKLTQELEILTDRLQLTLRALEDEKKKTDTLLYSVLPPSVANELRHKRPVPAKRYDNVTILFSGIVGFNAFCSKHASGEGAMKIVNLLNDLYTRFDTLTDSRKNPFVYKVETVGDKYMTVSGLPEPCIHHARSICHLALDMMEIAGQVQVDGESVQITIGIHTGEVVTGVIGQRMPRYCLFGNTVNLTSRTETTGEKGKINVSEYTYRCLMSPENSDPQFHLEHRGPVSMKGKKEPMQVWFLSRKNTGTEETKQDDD
Description: Recombinant human soluble guanylate cyclase (sGC) is purified from Sf9 insect cells coinfected with baculoviruses expressing the alpha 1 or beta 1 subunit of sGC, both with a C-terminal histidine tag. Heme-free sGC is prepared by treating cell lysate with a final concentration of 0.5% Tween 20 prior to purification on a nickel affinity column.
sGC catalyzes the conversion of guanosine-5′-triphosphate (GTP) to cyclic guanosine monophosphate (cGMP). The activity of sGC is measured in vitro using the commercially available CisBio cGMP detection kit (catalog # 62GM2PEB) in a 384 well format. In brief, 300 pM heme-free sGC is incubated in reaction buffer (50 mM MOPS pH 6.8, 0.2 N KOH, 50 mM NaCl, 2 mM MgCl2, 0.1% BSA, 1.25 mM IBMX, 0.25 mM TCEP, 50 nM GTP) in the presence or absence of dilutions of test compounds diluted in DMSO (final concentration of 1%) in a volume of 10 microL at 37° C. for 60 min. Undiluted reaction products or an 80-fold dilution of reaction products (10 microL of either) prepared in reaction buffer containing 0.2 mM TCEP and 10 mM EDTA is mixed with 5 microL of d2-cGMP plus 5 microL of Eu^3+ cryptate-labeled anti-cGMP, each diluted in buffer containing 0.1 M KPO4 pH 7.5, 0.4 M KF, 20 mM EDTA, 0.2% BSA. After a one h incubation at room temperature in the dark, the mixtures are quantified on an EnVision plate reader (PerkinElmer) according to manufacturer instructions (laser excitation 337 nm, emission 620 and 665 nm). The ratio at each compound concentration is converted to nM cGMP using the linear portion of a calibration curve. Log compound concentration is plotted against combined undiluted and diluted nM cGMP values to determine the EC50 for each curve.

[2] = Assessment of solubility: HT solubility in pION buffer, UV spectrophotometry; settings: 16-19 h incubation, 1.0% DMSO; for solubility: pION system solution buffer, kinetic from dmso stock
Description: Solubility is measured by the following method.
DMSO stock samples at 10 mM concentration are prepared. […] The samples are pierced and 100 ul of thawed samples are transferred into the PCR plate for analysis. Each sample is run in duplicate at each pH (pH 4.5 and 7.4). Up to 95 samples can be run in replicate at 2 pH's+1 DMSO (blank).
Preparation of pH 4.5 and 7.4 Buffers:
• pH 4.5 buffer:—To 12.5 of system solution (pION)qs to 500 mL of distilled water (pH 2.85-2.90); adjust the pH to pH 4.5 with 0.5 N NaOH. • pH 7.4 buffer: To 12.5 of system solution (pION)qs to 500 mL of distilled water (pH 2.85-2.90); adjust the pH to pH 7.4 with 0.5N NaOH. […] Procedure: Preparation of UV Blank Plate:
75 ul of buffer (pH 7.4 or pH 4.5) is added to UV plate followed by addition of 70 ul of N-propanol. The solution is mixed and the blank spectrum is read using spectrophotometer.
Preparation of Reference UV Plate:
10 ul of each stock sample (including DMSO control) is added to 190 ul of N-propanol to prepare the reference stock plate. Reference stock samples are mixed and 5 ul of each stock sample is added to UV blank plate after it is read spectrophotometrically. The reference stock sample is mixed with blank solution in UV plate and the reference spectrum is read using UV spectrophotometer.
Preparation of Sample for Incubation:
Solubility at pH 7.4:6 ul of each stock sample (including DMSO control) is added to the storage plate containing 600 ul of pH 7.4 buffer, mixed and incubated for 16-19 h. The plate is sealed well during the incubation process. The DMSO content in the sample is 1.0%. The concentration in deep well plates is 100 uM
6 ul of each stock sample (including DMSO control) is added to the deep well plate containing 600 ul of pH 4.5 buffer, mixed and incubated for 16-19 h. The plate is sealed well during the incubation process. The DMSO content in the sample is 1.0%. The concentration in deep well plates is 100 uM
Preparation of Sample UV Plate:
At the end of the incubation period, 100 uL of sample from the storage plate is vacuum filtered using a filter plate. This step wets the filters and the filtrate is discarded. Another 200 ul of the sample from the deep well plate is vacuum filtered using the same filter block but a clean filter plate. 75 ul of the filtrate from the filter plate is transferred to a UV sample plate. 75 ul of N-propanol is added to this UV plate. The solution is mixed and the spectrum is read using the UV spectrophotometer.
The spectra collected for blank, reference and sample from 250-498 nm is analyzed using pION software. If the sample precipitates out, the solubility is reported as XX μg/ml.

[3] = pH 4.5, pH 4.5, aqueous buffer, Solubility (pH 4.5), pH 4.5 buffer
[4] = pH 7.4, pH 7.4, aqueous buffer, Solubility (pH 7.4), pH 7.4 buffer

Compound | EC50 [1] | solubility [2, 3] | solubility [2, 4] | Solubility (pH 4.5) ([2]; pH 4.5 buffer) | Solubility (pH 7.4) ([2]; pH 7.4 buffer)
Cc1ccc(OCc2ccc(CN3CCOCC3)cc2C)c(-c2csc(C3=CCC(C(=O)O)CC3)n2)c1 (stereo not drawn) [Compound 10] | 4900 nM | 14 µg/mL (≈ 27 µM) | 22 µg/mL (≈ 42.4 µM) | – | –
Cc1cc(C(=O)N2CCCCC2)ccc1COc1ccccc1-c1csc([C@H]2CC[C@@H](C(=O)O)CC2)n1 [Compound 11] | 2300 nM | – | > 51 µg/mL | 0.1 μg/mL | –
Cc1cc(C(=O)N2CCCCC2)ccc1COc1ccccc1-c1csc([C@H]2CC[C@H](C(=O)O)CC2)n1 [Compound 12] | 4000 nM | – | > 51 µg/mL | 0.1 μg/mL | –
Cc1ccc(OCc2ccc(C(=O)N3CCCC3)cc2C)c(-c2csc(N3CCC(C(=O)O)CC3)n2)c1 [Compound 13] | 120 nM | – | – | 17 μg/mL | >51 μg/mL
Cc1cc(C(=O)N2CCCC2)ccc1COc1c(C)cccc1-c1csc(N2CCC(C(=O)O)CC2)n1 [Compound 15] | 190 nM | 13 µg/mL (≈ 25 µM) | > 51 µg/mL | – | –
Cc1cc(C(=O)N2CCCCC2)ccc1COc1ccccc1-c1csc(N2CCC(C(=O)O)CC2)n1 [Compound 17] | 79 nM | 0.7 µg/mL (≈ 1.35 µM) | > 51 µg/mL | – | –
Cc1ccc(OCc2ccc(CNCC(C)(C)O)cc2C)c(-c2csc(N3CCC(C(=O)O)CC3)n2)c1 [Compound 25] | 1300 nM | > 63 µg/mL | > 63 µg/mL | – | –
Cc1ccc(OCc2ccc(CNC(C)(C)CO)cc2C)c(-c2csc(N3CCC(C(=O)O)CC3)n2)c1 [Compound 26] | 2000 nM | > 63 µg/mL | > 63 µg/mL | – | –
Cc1ccc(OCc2ccc(C(=O)N3CCCC3)cc2C#N)c(-c2csc(N3CCC(C(=O)O)CC3)n2)c1 [Compound 30, 1-[4-[2-[[2-cyano-4-(pyrrolidine-1-carbonyl)phenyl]methoxy]-5-methyl-phenyl]thiazol-2-yl]piperidine-4-carboxylic acid] | 61 nM | 3.1 µg/mL (≈ 5.84 µM) | > 53 µg/mL | – | –
Cc1cccc(-c2csc(N3CCC(C(=O)O)CC3)n2)c1OCc1ccc(C(=O)N2CCCC2)cc1C#N [Compound 31] | 250 nM | 25 µg/mL (≈ 47.1 µM) | > 53 µg/mL | – | –
Cc1ccc(OCc2ccc(C(=O)N3CCCCC3)cc2C)c(-c2csc(C3=CCC(C(=O)O)CC3)n2)c1 (stereo not drawn) [Compound 32] | 310 nM | 0.15 µg/mL (≈ 0.283 µM) | 29 µg/mL (≈ 54.6 µM) | – | –
Cc1ccc(OCc2ccc(C(=O)N3CCCCC3)cc2C)c(-c2csc(N3CC4C(C3)C4C(=O)O)n2)c1 (stereo not drawn) [Compound 34] | 390 nM | 0.9 µg/mL (≈ 1.69 µM) | > 53 µg/mL | – | –
Cc1ccc(OCc2ccc(C(=O)N3CCCCC3)cc2C)c(-c2csc([C@H]3CC[C@@H](C(=O)O)CC3)n2)c1 [Compound 37] | 2100 nM | 0.15 µg/mL (≈ 0.282 µM) | > 53 µg/mL | – | –
Cc1ccc(OCc2ccc(C(=O)N3CCCCC3)cc2C)c(-c2csc([C@H]3CC[C@H](C(=O)O)CC3)n2)c1 [Compound 38] | 1700 nM | 0.25 µg/mL (≈ 0.469 µM) | > 53 µg/mL | – | –
Cc1ccc(OCc2ccc(C(=O)N3CCCCC3)cc2C)c(-c2csc(N3CCC(C(=O)O)CC3)n2)c1 [Compound 39] | 27 nM | 0.95 µg/mL (≈ 1.78 µM) | > 53 µg/mL | – | –
Cc1ccc(OCc2ccc(C(=O)N3CCCCC3)cc2C)c(-c2csc(N[C@H]3CC[C@@H](C(=O)O)C3)n2)c1 [Compound 40, (1R,3S)-3-[[4-[5-methyl-2-[[2-methyl-4-(piperidine-1-carbonyl)phenyl]methoxy]phenyl]thiazol-2-yl]amino]cyclopentanecarboxylic acid] | 2600 nM | 2.3 µg/mL (≈ 4.31 µM) | > 53 µg/mL | – | –
Cc1cc(C(=O)N2CCCCC2)ccc1COc1ccccc1-c1csc(N2CCC(C(=O)O)CC2C)n1 (stereo not drawn) [Compound 41] | 70 nM | 1.1 µg/mL (≈ 2.06 µM) | > 53 µg/mL | – | –
Cc1cc(C(=O)N2CCCCC2)ccc1COc1ccccc1-c1csc(N2CCC(C(=O)O)C(C)C2)n1 (stereo not drawn) [Compound 42] | 51 nM | 0.45 µg/mL (≈ 0.843 µM) | > 53 µg/mL | – | –

Other lines, results leading:

EC50 [1] | solubility [2, 3] | solubility [2, 4] | Solubility (pH 4.5) ([2]; pH 4.5 buffer) | Solubility (pH 7.4) ([2]; pH 7.4 buffer) | Compound
4700 nM | > 63 µg/mL | > 63 µg/mL | – | – | Cc1ccc(OCc2ccc(CN3CCOCC3)cc2C)c(-c2csc(N3CC4C(C3)C4C(=O)O)n2)c1 (stereo not drawn) [Compound 14]
140 nM | 33 µg/mL (≈ 63.3 µM) | 36 µg/mL (≈ 69 µM) | – | – | Cc1ccc(OCc2ccc(CN3CCOCC3)cc2C)c(-c2csc(N3CCC(C(=O)O)CC3)n2)c1 [Compound 20, 1-{4-[5-methyl-2-(2-methyl-4-morpholin-4-ylmethyl-benzyloxy)-phenyl]-thiazol-2-yl}-piperidine-4-carboxylic acid]
70 nM | > 52 µg/mL | > 52 µg/mL | – | – | Cc1cc(CN2CCOCC2)ccc1COc1c(C)cccc1-c1csc(N2CCC(C(=O)O)CC2)n1 [Compound 21]
1600 nM | > 63 µg/mL | > 63 µg/mL | – | – | Cc1ccc(OCc2ccc(CN3CCOCC3)cc2C)c(-c2csc(N3CCCC(C(=O)O)C3)n2)c1 (stereo not drawn) [Compound 22]
3200 nM | > 56 µg/mL | > 56 µg/mL | – | – | Cc1ccc(OCc2ccc(CN3CCOCC3)cc2C)c(-c2csc(N3CCC(CC(=O)O)C3)n2)c1 (stereo not drawn) [Compound 23]
510 nM | > 59 µg/mL | > 59 µg/mL | – | – | Cc1cc(CN2CCOCC2)ccc1COc1ccccc1-c1csc(N2CCC(C(=O)O)C(C)C2)n1 (stereo not drawn) [Compound 24]
200 nM | > 52 µg/mL | > 52 µg/mL | – | – | Cc1cc(CN2CCOCC2)ccc1COc1ccc(F)cc1-c1csc(N2CCC(C(=O)O)CC2)n1 [Compound 28]
440 nM | > 64 µg/mL | 5.2 µg/mL (≈ 9.8 µM) | – | – | Cc1ccc(OCc2ccc(CN3CCCCC3)cc2C#N)c(-c2csc(N3CCC(C(=O)O)CC3)n2)c1 [Compound 29]
7800 nM | > 60 µg/mL | > 60 µg/mL | – | – | Cc1cc(CN2CCOCC2)ccc1COc1ccc(C#N)cc1-c1csc(N2CC3C(C2)C3C(=O)O)n1 (stereo not drawn) [Compound 33]
280 nM | > 53 µg/mL | > 53 µg/mL | – | – | Cc1cc(CN2CCOCC2)ccc1COc1c(C#N)cccc1-c1csc(N2CCC(C(=O)O)CC2)n1 [Compound 35]
140 nM | > 64 µg/mL | > 64 µg/mL | – | – | Cc1cccc(-c2csc(N3CCC(C(=O)O)CC3)n2)c1OCc1ccc(CN2CCOCC2)cc1C#N [Compound 36]
